Laboratory results taken from patent US11576918B2, “Pharmaceutical composition and extract of Dendrobii Caulis with eye care effect and uses of preparing the same thereof” (AMX Pharma Inc., priority 2019, dated 2023).
Read-outs that look alike come from different tables or passages of the source.

Experiments:
ARPE-19 cells = type: cell-based; set-up: protective activity / toxic reaction: dose or concentration left out as unconfirmed; details: for protection effect (cell viability): 500 μM hydrogen peroxide, 24 h pre-treatment
Protocol: (§1) The present experiment took human retinal cell (ARPE-19) and rat retinal ganglion cells (RGC-5) as model cell lines. ARPE-19 cells were cultured in DMEM-F12 medium containing 10% fetal bovine serum (FBS), 0.2% sodium bicarbonate and antibiotics (penicillin 100 units/ml, streptomycin 100 μg/ml); RGC-5 were cultured in DMEM medium containing 10% fetal bovine serum (FBS) and antibiotics (penicillin 100 units/ml, streptomycin 100 μg/ml).
(§2) ARPE-19 and RGC-5 cells were seeded in 96-well plate. After 1 day, the cells were pre-treated with different concentrations of Dendrobii Caulis extract (A or A-2) or compounds 1-4 for 24 hours, and then exposed to (1) hydrogen peroxide (H2O2; 500 μM)) or (2) hypoxic environment or (3) ultraviolet (UV) irradiation (30 μJ/cm^2; three consecutive shots, for 60 seconds each with 60 second intervals, to trigger cell death. After 24-h culture, medium was removed and replaced with 10% precooled trichloroacetic acid (TCA) to fix cells at 4° C. for 1 h, then washed with ddH2O and dried. Next, 0.4% SRB 100 μl (w/v, in 1% acetic acid) was added to each well to stain the cells for 60 minutes, then washed several times with 1% acetic acid and dried plate.—The SRB in cells was dissolved in 150 μl of 10 mM Tris-HCl and measured the absorbance at 540 nm in an ELISA reader. The survival rate was calculated by comparing each treatment with the untreated control group as the 100% survival rate.

RGC-5 cells = type: cell-based; set-up: toxic reaction / protective activity: dose or concentration left out as unconfirmed; details: for protection effect (cell viability): 500 μM hydrogen peroxide, 24 h pre-treatment
Protocol: as §1, §2

retinal damage = details: absence of oxygen; recent study; cited from earlier work
optic nerve cell strains = details: some studies; cited from earlier work
zebrafish cataract = experiment: UVC-induced zebrafish cataract test; type: in vivo
Protocol: Zebrafish were randomly grouped (12 for each group) into blank control group, UVC irradiation group (300 μJ/cm^2) and UVC irradiation+treating group with A-2 at 0.495, 0.99, and 4.95 mg/ml three dosages or with compound 1 at 0.1 and 1.0 mM two dosages. The zebrafish were pre-fed with A-2 or compound 1 for one week, then subjected to UVC irradiation to observe the crystal change of the zebrafish daily. Before irradiating with UVC, the zebrafish is under anesthesia to expose only its eye to UVC (300 μJ/cm^2) for about 3 minutes, consecutively holding for seven days. The zebrafish eyes were observed every day. The severity of zebrafish cataract was scored from 1 to 3, depending on the clear level of the crystal body, in which the higher score represents the more turbidity of the crystal body. The scores are then plotted.

[1] = hydrogen peroxide and ultraviolet light
[2] = 1-10 mM, hydrogen peroxide, hypoxia or UV treatment
[3] = hydrogen peroxide, hypoxia or UV irradiation
[4] = hydrogen peroxide, hypoxia or UV treatment

CC(C)[C@@H]1[C@H]2OC(=O)[C@@H]1[C@@H]1CC[C@@H]3CN(C)[C@H]2[C@@]31C [compound 3, dendrobine]
protection effect (cell viability) (ARPE-19 cells; hypoxia or UV irradiation): does not show enough protective activity | protection effect (cell viability) (RGC-5 cells; hypoxia or UV irradiation): does not show enough protective activity

CC(C)(O)[C@H]1C2C(=O)OC1[C@@H](O)[C@]1(C)C2CC[C@H]1CO (stereo partly drawn) [compound 2, 2β, 3β, 11, 12-tetrahydroxypicrotoxan-3 (15)-olide]
protection (cell viability) (ARPE-19 cells; [1]): can also protect | protective effect compared with lutein (ARPE-19 cells; [1]): comparable to lutein | protection (cell viability) (RGC-5 cells; [1]): can also protect | protective effect compared with lutein (RGC-5 cells; [1]): comparable to lutein

COc1cc(CCc2cc(OC)c(O)c(OC)c2)ccc1O [moscatilin]
protection of retinal damage (retinal damage): can protect retinal damage in the absence of oxygen | toxicity to optic nerve cell strains (optic nerve cell strains): toxic

CC(C)(O)[C@H]1C2C(=O)OC1[C@@H](O)[C@]1(C)C2CC[C@H]1COC1OC(CO)C(O)C(O)C1O (stereo partly drawn) [compound 1, 2β, 3β, 11, 12-tetrahydroxypicrotoxan-3(15)-olide 11-O-β-D-glucopyranoside]
toxic reaction (ARPE-19 cells): no toxic reaction | protection effect (cell viability) (ARPE-19 cells; hypoxia or UV irradiation): can protect | concentration dependence of protective activity (ARPE-19 cells; [2]): concentration-dependent protective activity | protective effect compared with lutein (ARPE-19 cells; [3]): superior to lutein | protective activity (ARPE-19 cells; [4]): more than 80% | occurrence of UV-induced cataract (zebrafish cataract; 1 mM, fourth day): almost no cataract occurred | occurrence of UV-induced cataract (zebrafish cataract; 0.1 and 1.0 mM, pre-fed one week): can significantly reduce the occurrence of zebrafish cataract | toxic reaction (RGC-5 cells): no toxic reaction | protection effect (cell viability) (RGC-5 cells; hypoxia or UV irradiation): can protect | concentration dependence of protective activity (RGC-5 cells; [2]): concentration-dependent protective activity | protective effect compared with lutein (RGC-5 cells; [3]): superior to lutein | protective activity (RGC-5 cells; [4]): more than 80%
